The source made the active and inactive calls. No cut-off for these calls is given here.

In series [1] the target is T1, Amyloid-beta precursor protein (Homo sapiens, UniProt P05067). Description: Inhibition of HFIP-pretreated amyloid beta (1 to 42) (unknown origin) self-induced aggregation at 10 uM after 48 hrs by thioflavin T-based fluorometric assay relative to control.
In series [2] the target is T1, Amyloid-beta precursor protein. Description: Inhibition of HFIP-pretreated amyloid beta (1 to 42) (unknown origin) self-induced aggregation after 48 hrs by thioflavin T-based fluorometric assay.
Series [3] can be described thus: Antioxidant activity assessed as trolox equivalents of AAPH radical scavenging activity at 10 uM preincubated for 15 mins followed by AAPH addition measured every minute for 120 mins by ORAC-FL assay. Format: functional.
A short description of series [4]: in vitro. The conditions noted are these: PAMPA. (In PAMPA a lipid-coated filter parts donor from acceptor wells.)
Description: Permeability of the compound at 100 ug/ml after 10 hrs by PAMPA
Series [5] is described as follows: Inhibition of Cu2+ - induced amyloid beta (1 to 42) (unknown origin) aggregation at 50 uM after 24 hrs by thioflavin T-based fluorometric assay relative to control.
Series [6] can be described thus: Inhibition of Zn2+ - induced amyloid beta (1 to 42) (unknown origin) aggregation at 50 uM after 24 hrs by thioflavin T-based fluorometric assay relative to control.
In series [7] the test system is PC-12. Description: Cytoprotection against H2O2-induced oxidative stress in rat PC12 cells assessed as increase in cell viability up to 10 uM after 24 hrs by MTT assay. The series is classed as functional, cell-based.

T1 sequence (P05067 whole entry): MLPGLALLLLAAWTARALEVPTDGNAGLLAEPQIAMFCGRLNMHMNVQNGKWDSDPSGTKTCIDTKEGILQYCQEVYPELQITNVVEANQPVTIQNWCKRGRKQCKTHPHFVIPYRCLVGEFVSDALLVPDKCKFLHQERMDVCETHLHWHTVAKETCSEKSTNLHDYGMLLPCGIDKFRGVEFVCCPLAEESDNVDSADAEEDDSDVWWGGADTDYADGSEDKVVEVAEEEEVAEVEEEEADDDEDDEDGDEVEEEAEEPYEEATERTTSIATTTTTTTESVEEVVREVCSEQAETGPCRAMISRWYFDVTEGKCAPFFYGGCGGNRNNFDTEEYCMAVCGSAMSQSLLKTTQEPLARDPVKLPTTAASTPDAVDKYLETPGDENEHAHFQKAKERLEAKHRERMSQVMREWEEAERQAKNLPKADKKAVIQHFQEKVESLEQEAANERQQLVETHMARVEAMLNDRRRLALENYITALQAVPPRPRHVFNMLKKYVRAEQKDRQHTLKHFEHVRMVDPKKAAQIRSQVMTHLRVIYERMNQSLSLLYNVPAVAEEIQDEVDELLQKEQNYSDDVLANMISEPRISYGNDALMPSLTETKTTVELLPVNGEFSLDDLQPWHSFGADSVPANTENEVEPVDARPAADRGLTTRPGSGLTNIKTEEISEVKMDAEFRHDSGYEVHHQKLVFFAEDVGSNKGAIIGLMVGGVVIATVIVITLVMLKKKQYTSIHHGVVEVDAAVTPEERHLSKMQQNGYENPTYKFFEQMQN

For `Cc1ccccc1/C=C/C(=O)N1CCN(Cc2ccc(O)c3ncccc23)CC1`, in series [1], the inhibition (commonly the percentage by which the read-out fell short of the control) stood at 26.1%. In addition, in series [2], the IC50 (as a rule, the concentration at which inhibition is half-maximal) stood at 17.3 µM. Besides, in series [3], the Activity is 1.52 equiv.
For `O=C(CCc1ccccc1)N1CCN(Cc2ccc(O)c3ncccc23)CC1`, in that order: 28.1%, 19.7 µM and 2.6 equiv.
Turning to `O=C(CCc1ccc(Cl)cc1)N1CCN(Cc2ccc(O)c3ncccc23)CC1`, the inhibition in series [1] turned out to be 15.6%. The Activity in series [3] was 2.57 equiv.
As for `Oc1ccc(/C=C/c2cc(O)cc(O)c2)cc1`, the Activity in series [3] came out at 3.28 equiv.
Take `CCn1cc(C(=O)O)c(=O)c2cc(F)c(N3CCNC(C)C3)c(F)c21` (stereo unspecified) [LOMEFLOXACIN]: the Papp (usually the rate of passage across a membrane or cell layer, normalised by area and donor concentration) at 10 h, 100 ug/ml in series [4] came to 1.59 ×10⁻⁶ cm/s.
On to `O=C(/C=C/c1ccc(F)cc1F)N1CCN(Cc2ccc(O)c3ncccc23)CC1`, for which the inhibition in series [1] is 73.4%; in series [5], 62.1%; in series [6], 52%. Moreover, the IC50 in series [2] is 5.05 µM. Further, in series [3], the Activity is 1.57 equiv. In series [4], this molecule came in with an apparent permeability coefficient (Papp) at 10 h, 100 ug/ml of 18.6 ×10⁻⁶ cm/s.
Take `COc1ccc(/C=C/C(=O)N2CCN(Cc3ccc(O)c4ncccc34)CC2)cc1`: in series [1], the inhibition was 12.3%. Moreover, in series [3], the Activity is 1.25 equiv.
As to `O=C(/C=C/c1ccc(F)cc1)N1CCN(Cc2ccc(O)c3ncccc23)CC1`, the inhibition in series [1] was 49.9%. In addition, the IC50 in series [2] is 11.4 µM. The Activity in series [3] came to 1.45 equiv.
In the case of `COc1ccc(/C=C/C(=O)N2CCN(Cc3ccc(O)c4ncccc34)CC2)cc1OC`, the inhibition in series [1] stood at 29.4%. Also, the IC50 in series [2] turned out to be 18.9 µM. For the same molecule, the Activity in series [3] turned out to be 1.08 equiv. Besides, the Papp at 10 h, 100 ug/ml in series [4] was determined as 8.82 ×10⁻⁶ cm/s.
Turning to `O=C(/C=C/c1ccc([N+](=O)[O-])cc1)N1CCN(Cc2ccc(O)c3ncccc23)CC1`, the inhibition in series [1] stood at 13.2%. Moreover, the Activity in series [3] was 0.71 equiv.
With `Cc1c(C)c2c(c(C)c1O)CCC(C)(C(=O)O)O2` (stereo unspecified), the outcome in series [7] was Active.
With `O=C(O)CCc1ccccc1`, the Activity in series [3] came to 0.86 equiv.
For the molecule `N#Cc1ccc(/C=C/C(=O)N2CCN(Cc3ccc(O)c4ncccc34)CC2)cc1`, the inhibition in series [1] was 27.8%. For the same molecule, the IC50 in series [2] stood at 16.8 µM. Further, the Activity in series [3] stood at 1.77 equiv.
For `COc1ccc(CCC(=O)N2CCN(Cc3ccc(O)c4ncccc34)CC2)cc1`, in that order: 34.3%, 18.3 µM and 2.89 equiv.
On to `O=C(O)/C=C/c1ccccc1`, for which the Activity in series [3] was determined as 1.04 equiv.
In the case of `O=C(/C=C/c1ccccc1)N1CCN(Cc2ccc(O)c3ncccc23)CC1`, the inhibition in series [1] amounted to 55%; in series [5], 69.8%; in series [6] it was 66.5%. For the same molecule, in series [2], the IC50 is 8.86 µM. The Activity in series [3] was found to be 1.65 equiv.
With `O=C(CCc1ccc(F)cc1)N1CCN(Cc2ccc(O)c3ncccc23)CC1`, in series [1], the inhibition turned out to be 32.5%. Further, in series [2], the IC50 came out at 20.6 µM. Moreover, the Activity in series [3] was found to be 2.32 equiv.
For `COc1ccc(CCC(=O)N2CCN(Cc3ccc(O)c4ncccc34)CC2)cc1OC`, the inhibition in series [1] stood at 18.3%. Further, the Activity in series [3] turned out to be 3.74 equiv. This molecule also registered a Papp at 10 h, 100 ug/ml in series [4] of 9.67 ×10⁻⁶ cm/s.
Take `O=C(/C=C/c1ccc(Br)cc1)N1CCN(Cc2ccc(O)c3ncccc23)CC1`: the inhibition in series [1] was 8.65%. In series [3], the Activity turned out to be 0.93 equiv.
Turning to `Oc1c(I)cc(Cl)c2cccnc12`, the inhibition worked out at 25.7% in series [1], 61.4% in series [5] and 55.3% in series [6]. Besides, the Activity in series [3] was found to be 0.53 equiv.
`O=C(/C=C/c1ccccc1Cl)N1CCN(Cc2ccc(O)c3ncccc23)CC1`: in series [1], the inhibition came out at 61.9%. Further, the IC50 in series [2] was found to be 7.35 µM. In addition, the Activity in series [3] was 0.71 equiv. Also, in series [4], the Papp at 10 h, 100 ug/ml came out at 6.83 ×10⁻⁶ cm/s.
As for `O=C(/C=C/c1ccc(Cl)cc1)N1CCN(Cc2ccc(O)c3ncccc23)CC1`, the inhibition in series [1] worked out at 25.7%. In series [2], the IC50 was determined as 22.6 µM. Besides, the Activity in series [3] worked out at 0.69 equiv.
The molecule `C[C@]12CC[C@@H]3c4ccc(O)cc4CC[C@H]3[C@@H]1CC[C@@H]2O` [ESTRADIOL] registered a Papp at 10 h, 100 ug/ml in series [4] of 9.17 ×10⁻⁶ cm/s.

These data come from ChEMBL document CHEMBL4219257, “Novel 8-hydroxyquinoline derivatives targeting β-amyloid aggregation, metal chelation and oxidative stress against Alzheimer's disease” (Bioorg Med Chem, 2018).
